Results taken from ChEMBL document CHEMBL4507291 (2021).

Assays:
[1] = target: Leucine-rich repeat serine/threonine-protein kinase 2 (Homo sapiens, UniProt Q5S007); assay: LRRK2 Biochemical Assay
[2] = target: Vasopressin V1a receptor (Homo sapiens) (UniProt P37288); conditions: Compound concentration 10.0 uM
[3] = target: Ribosomal protein S6 kinase alpha-2 (Homo sapiens) (UniProt Q15349); assay: RPS6KA2 (RSK3) Kinase screen; conditions: Compound concentration 1.0 uM
[4] = target: D(2) dopamine receptor (Homo sapiens) (UniProt P14416); conditions: Compound concentration 10.0 uM
[5] = target: ATP-sensitive inward rectifier potassium channel 11 (Cricetulus griseus) (UniProt A0A3L7HHE1); assay: Inhibition of Potassium Channel [KATP] at 10 µM in the Eurofins-Panlabs radioligand binding assay (Eurofins_assay_265600); conditions: Cricetinae; Compound concentration 10.0 uM
[6] = target: Adrenomedullin receptor AM1; CALCRL/RAMP2 (Homo sapiens) (UniProt O60895+Q16602); assay: Adrenomedullin AM1 Eurofins-Panlabs radioligand binding assay; type: protein-complex assay; conditions: Compound concentration 10.0 uM
[7] = target: Activated CDC42 kinase 1 (Homo sapiens) (UniProt Q07912); assay: TNK2 (ACK) Kinase screen; conditions: Compound concentration 1.0 uM
[8] = target: Phosphatidylinositol 4-kinase alpha (Homo sapiens) (UniProt P42356); assay: PI4KA (PI4K alpha) Kinase screen; conditions: Compound concentration 1.0 uM
[9] = target: DNA-dependent protein kinase catalytic subunit (Homo sapiens) (UniProt P78527); assay: DNA-PK Kinase screen; conditions: Compound concentration 1.0 uM
[10] = target: Vascular endothelial growth factor receptor 2 (Homo sapiens) (UniProt P35968); assay: KDR (VEGFR2) Kinase screen; conditions: Compound concentration 1.0 uM
Chain of Vascular endothelial growth factor receptor 2 (Homo sapiens) (P35968 whole entry): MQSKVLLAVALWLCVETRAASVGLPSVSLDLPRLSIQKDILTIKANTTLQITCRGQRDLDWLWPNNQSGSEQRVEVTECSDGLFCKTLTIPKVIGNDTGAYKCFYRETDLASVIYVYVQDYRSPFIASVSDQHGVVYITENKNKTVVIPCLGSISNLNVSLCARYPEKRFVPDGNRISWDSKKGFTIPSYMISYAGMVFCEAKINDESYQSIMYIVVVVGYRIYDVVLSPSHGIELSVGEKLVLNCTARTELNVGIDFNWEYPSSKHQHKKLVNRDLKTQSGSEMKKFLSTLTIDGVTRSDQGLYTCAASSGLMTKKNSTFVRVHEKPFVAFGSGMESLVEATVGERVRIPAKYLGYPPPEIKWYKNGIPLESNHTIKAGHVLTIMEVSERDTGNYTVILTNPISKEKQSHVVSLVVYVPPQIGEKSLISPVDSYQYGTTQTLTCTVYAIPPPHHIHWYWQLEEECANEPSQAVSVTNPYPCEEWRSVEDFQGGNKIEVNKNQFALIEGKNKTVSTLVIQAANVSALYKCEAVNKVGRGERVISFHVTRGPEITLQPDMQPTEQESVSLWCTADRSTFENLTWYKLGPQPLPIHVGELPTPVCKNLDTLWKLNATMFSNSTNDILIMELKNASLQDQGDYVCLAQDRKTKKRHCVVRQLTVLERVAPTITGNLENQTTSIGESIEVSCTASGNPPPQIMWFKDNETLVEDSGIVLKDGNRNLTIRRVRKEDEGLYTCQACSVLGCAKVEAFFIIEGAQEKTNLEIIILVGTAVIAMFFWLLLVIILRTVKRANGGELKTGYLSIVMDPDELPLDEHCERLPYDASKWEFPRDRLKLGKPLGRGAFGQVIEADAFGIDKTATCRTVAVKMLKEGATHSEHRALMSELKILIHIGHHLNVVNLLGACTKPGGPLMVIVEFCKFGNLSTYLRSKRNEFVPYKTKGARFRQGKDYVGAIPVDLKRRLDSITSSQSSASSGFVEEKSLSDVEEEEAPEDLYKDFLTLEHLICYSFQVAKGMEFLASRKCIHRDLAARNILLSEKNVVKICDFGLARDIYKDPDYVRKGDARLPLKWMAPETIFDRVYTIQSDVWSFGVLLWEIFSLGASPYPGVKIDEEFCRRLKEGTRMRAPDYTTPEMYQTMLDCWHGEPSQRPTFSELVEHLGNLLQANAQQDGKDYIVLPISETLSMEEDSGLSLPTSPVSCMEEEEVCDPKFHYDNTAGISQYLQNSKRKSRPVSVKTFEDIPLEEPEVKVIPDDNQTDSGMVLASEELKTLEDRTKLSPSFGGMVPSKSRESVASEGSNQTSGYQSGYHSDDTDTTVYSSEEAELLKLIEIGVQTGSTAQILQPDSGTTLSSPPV

[11] = target: Mitogen-activated protein kinase kinase kinase 20 (Homo sapiens) (UniProt Q9NYL2); assay: ZAK Kinase screen; conditions: Compound concentration 1.0 uM
Chain of Mitogen-activated protein kinase kinase kinase 20 (Homo sapiens) (Q9NYL2 2-800 limits assumed): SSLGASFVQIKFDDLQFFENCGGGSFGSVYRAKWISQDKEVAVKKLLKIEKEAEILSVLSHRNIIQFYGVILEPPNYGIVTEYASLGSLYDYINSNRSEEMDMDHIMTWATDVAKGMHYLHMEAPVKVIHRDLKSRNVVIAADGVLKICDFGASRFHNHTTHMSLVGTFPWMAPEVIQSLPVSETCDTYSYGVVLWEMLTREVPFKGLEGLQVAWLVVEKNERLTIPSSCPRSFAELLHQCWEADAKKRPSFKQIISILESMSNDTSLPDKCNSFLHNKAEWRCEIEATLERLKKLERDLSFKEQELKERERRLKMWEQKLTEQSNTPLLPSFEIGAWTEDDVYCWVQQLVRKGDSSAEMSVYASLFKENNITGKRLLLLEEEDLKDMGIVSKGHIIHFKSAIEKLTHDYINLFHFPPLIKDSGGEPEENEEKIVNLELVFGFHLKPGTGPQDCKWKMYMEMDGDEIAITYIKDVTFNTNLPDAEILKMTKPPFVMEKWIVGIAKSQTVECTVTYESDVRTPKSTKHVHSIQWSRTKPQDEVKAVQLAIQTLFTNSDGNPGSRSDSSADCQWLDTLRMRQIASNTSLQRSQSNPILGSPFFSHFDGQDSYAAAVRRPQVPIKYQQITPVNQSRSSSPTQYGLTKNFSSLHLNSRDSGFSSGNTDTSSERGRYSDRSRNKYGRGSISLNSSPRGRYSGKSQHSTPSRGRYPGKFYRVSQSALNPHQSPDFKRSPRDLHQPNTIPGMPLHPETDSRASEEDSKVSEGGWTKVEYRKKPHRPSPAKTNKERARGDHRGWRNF

[12] = target: Sodium-dependent noradrenaline transporter (Homo sapiens, UniProt P23975)
Chain of Sodium-dependent noradrenaline transporter (P23975 whole entry): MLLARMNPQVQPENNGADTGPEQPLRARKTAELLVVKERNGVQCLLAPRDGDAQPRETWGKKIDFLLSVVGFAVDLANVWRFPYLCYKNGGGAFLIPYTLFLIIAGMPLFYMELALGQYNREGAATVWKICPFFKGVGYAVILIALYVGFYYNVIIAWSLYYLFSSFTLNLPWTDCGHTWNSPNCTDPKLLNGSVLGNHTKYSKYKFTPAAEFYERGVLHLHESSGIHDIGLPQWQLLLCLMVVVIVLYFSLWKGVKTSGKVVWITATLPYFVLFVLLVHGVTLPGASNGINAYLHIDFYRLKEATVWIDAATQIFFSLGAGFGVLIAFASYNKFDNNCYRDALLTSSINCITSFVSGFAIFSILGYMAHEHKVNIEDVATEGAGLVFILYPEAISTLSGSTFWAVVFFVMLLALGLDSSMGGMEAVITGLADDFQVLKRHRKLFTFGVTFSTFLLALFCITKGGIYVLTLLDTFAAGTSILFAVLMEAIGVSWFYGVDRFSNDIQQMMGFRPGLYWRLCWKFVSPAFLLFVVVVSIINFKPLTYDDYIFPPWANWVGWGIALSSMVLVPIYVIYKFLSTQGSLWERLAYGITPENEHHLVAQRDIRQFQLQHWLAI

[13] = target: Neurotensin receptor type 1 (Homo sapiens) (UniProt P30989); assay: Neurotensin NT1 Eurofins-Panlabs radioligand binding assay; set-up: ligand concentration 0.02 nM, non-specific ligand with concentration 1 µM Neurotensin, incubation time 45 min, incubation temperature 25 °C; conditions: Compound concentration 10.0 uM
Chain of Neurotensin receptor type 1 (Homo sapiens) (P30989 whole entry, canonical isoform): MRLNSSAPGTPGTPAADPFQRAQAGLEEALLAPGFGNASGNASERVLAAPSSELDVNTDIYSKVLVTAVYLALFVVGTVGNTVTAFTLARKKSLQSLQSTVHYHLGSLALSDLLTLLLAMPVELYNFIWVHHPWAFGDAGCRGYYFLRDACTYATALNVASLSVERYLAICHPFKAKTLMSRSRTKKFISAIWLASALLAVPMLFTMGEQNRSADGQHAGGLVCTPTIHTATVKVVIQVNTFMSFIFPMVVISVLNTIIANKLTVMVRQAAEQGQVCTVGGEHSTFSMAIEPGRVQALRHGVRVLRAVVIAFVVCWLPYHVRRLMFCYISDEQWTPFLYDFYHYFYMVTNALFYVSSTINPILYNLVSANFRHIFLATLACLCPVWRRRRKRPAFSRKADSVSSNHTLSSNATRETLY

[14] = target: Phosphorylase b kinase gamma catalytic chain, skeletal muscle/heart isoform (Homo sapiens) (UniProt Q16816); assay: PHKG1 Kinase screen; conditions: Compound concentration 1.0 uM
[15] = target: Dual specificity protein kinase CLK4 (Homo sapiens) (UniProt Q9HAZ1); assay: CLK4 Kinase screen; conditions: Compound concentration 1.0 uM
[16] = target: Protein kinase C zeta type (Homo sapiens) (UniProt Q05513); assay: PRKCZ (PKC zeta) Kinase screen; conditions: Compound concentration 1.0 uM
[17] = target: 5-hydroxytryptamine receptor 2B (Homo sapiens, UniProt P41595)
Chain of 5-hydroxytryptamine receptor 2B (P41595 whole entry): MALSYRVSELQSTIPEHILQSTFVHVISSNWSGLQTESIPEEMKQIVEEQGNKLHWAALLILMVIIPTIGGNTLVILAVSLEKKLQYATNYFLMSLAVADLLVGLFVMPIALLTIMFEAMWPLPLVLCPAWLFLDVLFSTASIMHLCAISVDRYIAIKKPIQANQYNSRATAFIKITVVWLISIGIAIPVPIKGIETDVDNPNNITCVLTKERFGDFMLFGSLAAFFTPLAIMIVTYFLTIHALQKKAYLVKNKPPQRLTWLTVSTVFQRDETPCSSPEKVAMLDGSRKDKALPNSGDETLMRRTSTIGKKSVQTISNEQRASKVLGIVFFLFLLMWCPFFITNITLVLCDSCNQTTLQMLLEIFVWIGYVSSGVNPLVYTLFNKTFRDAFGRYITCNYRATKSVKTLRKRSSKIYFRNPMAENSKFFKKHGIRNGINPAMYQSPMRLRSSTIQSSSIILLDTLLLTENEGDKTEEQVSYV

[18] = target: cAMP-dependent protein kinase catalytic subunit alpha (Homo sapiens) (UniProt P17612); assay: PRKACA (PKA) Kinase screen; conditions: Compound concentration 1.0 uM
[19] = target: Sodium-dependent serotonin transporter (Homo sapiens) (UniProt P31645); conditions: Compound concentration 10.0 uM
[20] = target: Protein kinase C alpha type (Homo sapiens) (UniProt P17252); assay: PRKCA (PKC alpha) Kinase screen; conditions: Compound concentration 1.0 uM
[21] = target: Myosin light chain kinase 2, skeletal/cardiac muscle (Homo sapiens) (UniProt Q9H1R3); assay: MYLK2 (skMLCK) Kinase screen; conditions: Compound concentration 1.0 uM
[22] = target: Protein-tyrosine kinase 2-beta (Homo sapiens) (UniProt Q14289); assay: PTK2B (FAK2) Kinase screen; conditions: Compound concentration 1.0 uM
[23] = target: C-X-C chemokine receptor type 2 (Homo sapiens) (UniProt P25025); assay: Inhibition of Chemokine CXCR2 (IL-8RB) at 10 µM in the Eurofins-Panlabs radioligand binding assay (Eurofins_assay_244500); conditions: Compound concentration 10.0 uM
[24] = target: BDNF/NT-3 growth factors receptor (Homo sapiens) (UniProt Q16620); assay: NTRK2 (TRKB) Kinase screen; conditions: Compound concentration 1.0 uM
[25] = target: T1, Mitogen-activated protein kinase kinase kinase 3 (Homo sapiens) (UniProt Q99759); assay: MAP3K3 (MEKK3) Kinase screen; conditions: Compound concentration 1.0 uM
T1 sequence (whole entry): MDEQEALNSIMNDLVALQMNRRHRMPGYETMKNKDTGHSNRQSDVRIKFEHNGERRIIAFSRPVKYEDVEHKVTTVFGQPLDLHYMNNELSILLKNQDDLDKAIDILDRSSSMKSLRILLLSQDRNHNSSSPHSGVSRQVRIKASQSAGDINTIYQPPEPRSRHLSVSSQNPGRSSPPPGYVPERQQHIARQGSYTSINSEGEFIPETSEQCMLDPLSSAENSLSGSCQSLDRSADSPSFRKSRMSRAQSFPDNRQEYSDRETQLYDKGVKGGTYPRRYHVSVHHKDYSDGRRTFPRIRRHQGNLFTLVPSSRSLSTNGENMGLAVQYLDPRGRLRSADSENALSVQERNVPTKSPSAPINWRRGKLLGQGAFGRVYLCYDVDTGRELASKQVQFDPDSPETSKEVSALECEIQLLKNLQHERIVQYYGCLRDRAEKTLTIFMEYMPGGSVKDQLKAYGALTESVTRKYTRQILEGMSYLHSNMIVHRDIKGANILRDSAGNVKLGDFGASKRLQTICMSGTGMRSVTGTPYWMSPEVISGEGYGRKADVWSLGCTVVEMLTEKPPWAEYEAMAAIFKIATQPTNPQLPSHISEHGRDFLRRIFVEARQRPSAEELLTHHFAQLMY

[26] = target: Corticotropin-releasing factor receptor 1 (Homo sapiens) (UniProt P34998); assay: Corticotropin Releasing Factor CRF1 Eurofins-Panlabs radioligand binding assay; conditions: Compound concentration 10.0 uM
Chain of Corticotropin-releasing factor receptor 1 (Homo sapiens) (P34998 whole entry): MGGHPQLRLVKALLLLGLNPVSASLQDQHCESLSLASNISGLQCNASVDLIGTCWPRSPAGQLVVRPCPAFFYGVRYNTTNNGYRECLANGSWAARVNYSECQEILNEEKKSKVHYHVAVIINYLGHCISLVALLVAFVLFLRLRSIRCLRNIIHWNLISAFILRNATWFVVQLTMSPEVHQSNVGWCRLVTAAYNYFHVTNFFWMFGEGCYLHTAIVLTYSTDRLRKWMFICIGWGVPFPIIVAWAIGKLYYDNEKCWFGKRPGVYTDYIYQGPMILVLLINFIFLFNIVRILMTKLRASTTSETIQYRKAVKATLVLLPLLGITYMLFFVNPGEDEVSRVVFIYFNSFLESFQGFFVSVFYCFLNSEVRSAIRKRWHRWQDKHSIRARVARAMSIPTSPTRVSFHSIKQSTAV

Homo sapiens = species: Homo sapiens; assay: Glutamate, Metabotropic, mGlu5 Eurofins-Panlabs radioligand binding assay; conditions: Compound concentration 10.0 uM
[27] = target: Vasopressin V1b receptor (Homo sapiens) (UniProt P47901); assay: Inhibition of Vasopressin V1B at 10 µM in the Eurofins-Panlabs radioligand binding assay (Eurofins_assay_287560); set-up: ligand concentration 1 nM; conditions: Compound concentration 10.0 uM
Chain of Vasopressin V1b receptor (Homo sapiens) (P47901 whole entry): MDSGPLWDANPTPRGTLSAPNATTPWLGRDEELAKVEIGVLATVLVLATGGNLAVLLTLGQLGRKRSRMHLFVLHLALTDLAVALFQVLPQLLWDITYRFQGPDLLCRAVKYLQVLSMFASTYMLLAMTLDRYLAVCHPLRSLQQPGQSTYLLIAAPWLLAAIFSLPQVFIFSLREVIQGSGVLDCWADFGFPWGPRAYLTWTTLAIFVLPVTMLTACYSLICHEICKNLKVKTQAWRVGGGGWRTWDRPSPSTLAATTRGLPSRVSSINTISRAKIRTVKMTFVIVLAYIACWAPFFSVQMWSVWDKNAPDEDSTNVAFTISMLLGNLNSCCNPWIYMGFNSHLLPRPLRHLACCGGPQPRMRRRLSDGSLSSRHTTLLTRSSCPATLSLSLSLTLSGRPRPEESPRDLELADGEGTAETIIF

[28] = test system: Tyrosine-protein kinase ABL1 (Homo sapiens), P00519 [E255K]; assay: ABL1 E255K Kinase screen; conditions: Compound concentration 1.0 uM
[29] = test system: Tyrosine-protein kinase ABL1 (Homo sapiens), P00519 [Y253F]; assay: ABL1 Y253F Kinase screen; conditions: Compound concentration 1.0 uM

Chain of Vasopressin V1a receptor (Homo sapiens) (P37288 whole entry, looked up): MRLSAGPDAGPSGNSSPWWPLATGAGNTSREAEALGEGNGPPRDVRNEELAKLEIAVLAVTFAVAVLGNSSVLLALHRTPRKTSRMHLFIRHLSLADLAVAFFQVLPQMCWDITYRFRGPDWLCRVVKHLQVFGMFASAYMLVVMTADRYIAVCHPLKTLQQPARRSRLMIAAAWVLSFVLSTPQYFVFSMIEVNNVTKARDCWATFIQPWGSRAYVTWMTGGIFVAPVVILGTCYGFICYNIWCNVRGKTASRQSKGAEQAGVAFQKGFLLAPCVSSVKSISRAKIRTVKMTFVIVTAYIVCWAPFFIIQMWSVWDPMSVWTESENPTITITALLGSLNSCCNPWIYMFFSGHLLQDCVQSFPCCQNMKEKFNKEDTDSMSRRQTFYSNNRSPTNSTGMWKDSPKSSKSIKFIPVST

SMILES: C[C@@H]1CN(c2cc(-c3nn(C)c4ccc(OC5(C)CC5)cc34)ncn2)C[C@H](C)O1 [MLi-2-NC]
- IC50 [1]: 6.48 µM (not active)

SMILES: C[C@@H]1CN(c2cc(-c3n[nH]c4ccc(OC5(C)CC5)cc34)ncn2)C[C@H](C)O1 [MLi-2]
- inhibition [2]: -9%
- inhibition [3]: 7.53%
- inhibition [4]: 11%
- inhibition [5]: 18%
- inhibition [6]: -8%
- inhibition [7]: 22.9%
- inhibition [8]: 5.35%
- inhibition [9]: 21.6%
- inhibition [10]: 3.64%
- inhibition [11]: 4.32%
- inhibition ([12]; Compound concentration 0.01 uM): 6%
- inhibition ([12]; Compound concentration 0.1 uM): 8%
- inhibition ([12]; Compound concentration 1.0 uM): 15%
- inhibition ([12]; Compound concentration 10.0 uM): 77%
- inhibition [13]: -2%
- inhibition [14]: 0.801%
- inhibition [15]: 80.1%
- inhibition [16]: -4.02%
- inhibition ([17]; Compound concentration 0.01 uM): -7%
- inhibition ([17]; Compound concentration 0.1 uM): 8%
- inhibition ([17]; Compound concentration 1.0 uM): 44%
- inhibition ([17]; Compound concentration 10.0 uM): 95%
- inhibition [18]: -2.26%
- inhibition [19]: 2%
- inhibition [20]: -4.08%
- inhibition [21]: 1.42%
- inhibition [22]: 2.48%
- inhibition [23]: 1%
- inhibition [24]: 7.02%
- inhibition [25]: -0.743%
- inhibition [26]: 6%
- inhibition (Homo sapiens): 0%
- inhibition [27]: 1%
- inhibition [28]: 4.43%
- inhibition [29]: 7.26%
